In brackets after ≈: the same amount, converted by molar mass. Activity calls are given as the source filed them. The calls are words filed in the database; no cut-off is given here.
Tests used:
HUVEC = test: Antiangiogenic activity against human HUVEC cells assessed as suppression of tube formation after 20 hrs incubation by calcein staining-based fluorescent microscopy; format: functional, cell-based
NHDF = test: Growth inhibition of human NHDF cells after 5 days by MTT assay; format: cell-based; conditions: 120 h
[1] = Growth inhibition of rat kangaroo PtK2 cells after 5 days by MTT assay; format: cell-based; conditions: Potorous tridactylus, PtK2, 120 h
PC-3 = test: Growth inhibition of human PC3 cells after 5 days by MTT assay; format: functional, cell-based; conditions: PC-3, 120 h
[2] = Growth inhibition of human KB-3-1 cells after 5 days by MTT assay; format: functional, cell-based; conditions: KB 3-1, 120 h
Tubulin (Sus scrofa) = Tubulin (Sus scrofa) (UniProt P02554+P02550); test: Inhibition of pig porcine tubulin polymerization at 25 ug/mL by turbidimetric method; format: protein assay; conditions: at 25 µg/mL
Tubulin (Sus scrofa), sequence (P02550 whole entry, looked up): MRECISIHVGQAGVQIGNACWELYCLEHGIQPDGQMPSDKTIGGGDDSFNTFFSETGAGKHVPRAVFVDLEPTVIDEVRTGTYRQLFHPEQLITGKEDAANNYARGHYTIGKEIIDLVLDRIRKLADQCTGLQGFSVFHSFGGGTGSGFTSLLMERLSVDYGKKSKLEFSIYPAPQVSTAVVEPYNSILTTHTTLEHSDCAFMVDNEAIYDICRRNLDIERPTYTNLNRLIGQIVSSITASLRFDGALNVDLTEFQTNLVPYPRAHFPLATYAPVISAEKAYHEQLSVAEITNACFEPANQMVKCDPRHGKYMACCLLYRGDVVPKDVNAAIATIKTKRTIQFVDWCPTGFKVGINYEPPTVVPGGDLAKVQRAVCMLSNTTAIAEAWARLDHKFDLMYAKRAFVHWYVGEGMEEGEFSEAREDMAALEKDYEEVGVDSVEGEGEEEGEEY
Tubulin (Sus scrofa), sequence (P02554 whole entry, looked up): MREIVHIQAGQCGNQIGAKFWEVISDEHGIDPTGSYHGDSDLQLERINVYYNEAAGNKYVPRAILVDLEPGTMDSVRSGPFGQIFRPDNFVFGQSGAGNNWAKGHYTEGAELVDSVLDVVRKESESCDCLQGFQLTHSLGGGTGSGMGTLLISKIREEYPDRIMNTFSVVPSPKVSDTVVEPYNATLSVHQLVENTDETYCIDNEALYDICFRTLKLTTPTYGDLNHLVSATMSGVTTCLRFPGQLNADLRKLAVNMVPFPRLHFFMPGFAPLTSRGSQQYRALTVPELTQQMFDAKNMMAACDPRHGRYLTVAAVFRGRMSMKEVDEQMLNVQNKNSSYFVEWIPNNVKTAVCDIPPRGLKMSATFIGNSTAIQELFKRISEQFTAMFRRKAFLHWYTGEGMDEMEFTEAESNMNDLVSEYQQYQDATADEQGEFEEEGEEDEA

PtK2 = test: Disruption of microtubule network in potoroo PtK2 cells at 10 ug/mL after 16 hrs by immunofluorescence staining method; format: cell-based; conditions: Potorous tridactylus
L929 = test: Growth inhibition of mouse L929 cells after 5 days by MTT assay; format: cell-based; conditions: L929, 120 h

Row | SMILES | MIC (HUVEC) [µM] | IC50 (NHDF) [µM] | IC50 [1] [µM] | IC50 (PC-3) [µM] | IC50 [2] [µM] | inhibition (Tubulin (Sus scrofa)) | Activity (PtK2) | IC50 (L929) [µM]
1 | COc1ccc(-c2c(-c3cc(OC)c(OC)c(OC)c3)ncn2C)cc1N | 0.29 (≈ 0.107 µg/mL) | 0.14 | 0.45 | 0.09 | 0.07 | Active | Active | 0.22
2 | COc1ccc(-c2ncn(C)c2-c2cc(Cl)c(OC)c(OC)c2)cc1F |  | 0.24 | 0.48 |  | 0.19 |  | Active | 0.22
3 | COc1ccc(-c2c(-c3cc(Cl)c(OC)c(OC)c3)ncn2C)cc1N | 0.07 (≈ 0.0262 µg/mL) | 0.97 | 0.07 |  | 0.016 |  | Active | 0.135
4 | COc1ccc(-c2ncn(C)c2-c2cc(I)c(OC)c(I)c2)cc1F | 0.08 (≈ 0.0451 µg/mL) | 3.3 | 0.33 | 0.003 | 0.003 | Active | Active | 0.018
5 | COc1ccc(-c2ncn(C)c2-c2cc(F)c(OC)c(F)c2)cc1F | 27 (≈ 9.4 µg/mL) | 52 | 23 | 16 | 21 | inactive | inactive | 31
6 | COc1ccc(-c2ncn(C)c2-c2cc(Cl)c(OC)c(Cl)c2)cc1F |  | 7.18 | 4.3 |  | 1.15 |  | Active | 2.4
7 | COc1ccc(-c2ncn(C)c2-c2cc(F)c(OC)c(OC)c2)cc1F | 10 (≈ 3.6 µg/mL) | 7.6 | 5 | 1.8 | 2 |  | Active | 10
8 | COc1ccc(-c2ncn(C)c2-c2cc(Br)c(OC)c(Br)c2)cc1F | 0.27 (≈ 0.127 µg/mL) | 0.4 | 1.2 | 0.01 | 0.014 | Active | Active | 4.4
9 | COc1ccc(-c2ncn(C)c2-c2cc(I)c(OC)c(OC)c2)cc1F |  | 0.04 | 0.18 |  | 0.09 |  | Active | 0.04
10 | COc1ccc(-c2ncn(C)c2-c2cc(Br)c(OC)c(OC)c2)cc1F | 0.11 (≈ 0.0463 µg/mL) | 0.175 | 0.44 | 0.07 | 0.005 | Active | Active | 0.025

— ChEMBL document CHEMBL1909605, “Cytotoxic and antivascular 1-methyl-4-(3-fluoro-4-methoxyphenyl)-5-(halophenyl)-imidazoles” (Bioorg Med Chem Lett, 2011)
